Our source for the IC50 values is BindingDB's records for doi:10.1016/s0960-894x(03)00014-3 (Merck Research Laboratories, 2003).

Molecules are shown by their SMILES. pIC50: −log10 of the molar value.

The test can be described thus: Inhibition of T-cell proliferation was determined by a human T-cell assay.

With `COc1ccccc1C(=O)NC[C@]1(c2ccccc2)CC[C@H](NC(=O)Cc2ccccc2)CC1` [2-Methoxy-N-(1-phenyl-4-phenylacetylamino-cyclohexylmethyl)-benzamide], the pIC50 is 6.22.
Under `COc1ccccc1C(=O)NCC1(c2ccccc2)CCC(=O)CC1` [2-Methoxy-N-(4-oxo-1-phenyl-cyclohexylmethyl)-benzamide] stands 5.92; under `COc1ccccc1C(=O)NC[C@]1(c2ccccc2)CC[C@H](NC(=O)CCc2ccccc2)CC1` [2-Methoxy-N-[1-phenyl-4-(3-phenyl-propionylamino)-cyclohexylmethyl]-benzamide], 6.70.
The compound `COc1ccccc1C(=O)NC[C@]1(c2ccccc2)CC[C@@H](OC(=O)NCCO)CC1` [(2-Hydroxy-ethyl)-carbamic acid 4-[(2-methoxy-benzoylamino)-methyl]-4-phenyl-cyclohexyl ester] showed a pIC50 of 5.75.
Under `COCCNC(=O)O[C@H]1CC[C@@](CNC(=O)c2ccccc2OC)(c2ccccc2)CC1` [(2-Methoxy-ethyl)-carbamic acid 4-[(2-methoxy-benzoylamino)-methyl]-4-phenyl-cyclohexyl ester] stands 6.00.
Under `C=C(C)CNC(=O)O[C@H]1CC[C@@](CNC(=O)c2ccccc2OC)(c2ccccc2)CC1` [(2-Methyl-allyl)-carbamic acid 4-[(2-methoxy-benzoylamino)-methyl]-4-phenyl-cyclohexyl ester] stands 6.16.
Then `C=CCNC(=O)O[C@H]1CC[C@@](CNC(=O)c2ccccc2OC)(c2ccccc2)CC1` [Allyl-carbamic acid 4-[(2-methoxy-benzoylamino)-methyl]-4-phenyl-cyclohexyl ester], with 6.44; and `C=CCNC(=O)O[C@H]1CC[C@](CNC(=O)c2ccccc2OC)(c2ccccc2)CC1` [Allyl-carbamic acid 4-[(2-methoxy-benzoylamino)-methyl]-4-phenyl-cyclohexyl ester], with 5.96.
Consider `C=CCN(C)C(=O)O[C@H]1CC[C@](CNC(=O)c2ccccc2OC)(c2ccccc2)CC1` [Allyl-methyl-carbamic acid 4-[(2-methoxy-benzoylamino)-methyl]-4-phenyl-cyclohexyl ester], for which the pIC50 was 6.18. This pIC50 lies 0.22 log units higher than the previous one.
Then `COc1ccccc1C(=O)NC[C@]1(c2ccccc2)CC[C@H](OC(=O)NCc2ccccc2)CC1` [Benzyl-carbamic acid 4-[(2-methoxy-benzoylamino)-methyl]-4-phenyl-cyclohexyl ester], with 6.04; and `CCCCNC(=O)O[C@H]1CC[C@@](CNC(=O)c2ccccc2OC)(c2ccccc2)CC1` [Butyl-carbamic acid 4-[(2-methoxy-benzoylamino)-methyl]-4-phenyl-cyclohexyl ester], with 6.16.
Under `CCCCNC(=O)O[C@H]1CC[C@](CNC(=O)c2ccccc2OC)(c2ccccc2)CC1` [Butyl-carbamic acid 4-[(2-methoxy-benzoylamino)-methyl]-4-phenyl-cyclohexyl ester] stands 6.49.
For the compound `COc1ccccc1C(=O)NC[C@]1(c2ccccc2)CC[C@H](OC(N)=O)CC1` [Carbamic acid 4-[(2-methoxy-benzoylamino)-methyl]-4-phenyl-cyclohexyl ester], the negative-log IC50 (pIC50) was 6.28.
As for `COc1ccccc1C(=O)NC[C@]1(c2ccccc2)CC[C@@H](OC(=O)NC(C)C)CC1` [Isopropyl-carbamic acid 4-[(2-methoxy-benzoylamino)-methyl]-4-phenyl-cyclohexyl ester], the pIC50 was 6.65.
In turn, `COc1ccccc1C(=O)NC[C@]1(c2ccccc2)CC[C@H](OC(=O)NC(C)C)CC1` [Isopropyl-carbamic acid 4-[(2-methoxy-benzoylamino)-methyl]-4-phenyl-cyclohexyl ester] showed a pIC50 of 6.05. This pIC50 lies 0.60 log units lower than the previous one.
Then `CNC(=O)O[C@H]1CC[C@@](CNC(=O)c2ccccc2OC)(c2ccccc2)CC1` [Methyl-carbamic acid 4-[(2-methoxy-benzoylamino)-methyl]-4-phenyl-cyclohexyl ester], with 6.71; and `CNC(=O)O[C@H]1CC[C@](CNC(=O)c2ccccc2OC)(c2ccccc2)CC1` [Methyl-carbamic acid 4-[(2-methoxy-benzoylamino)-methyl]-4-phenyl-cyclohexyl ester], with 5.90; and `COc1ccccc1C(=O)NC[C@]1(c2ccccc2)CC[C@H](NC(=O)c2ccccc2)CC1` [N-(4-Benzoylamino-1-phenyl-cyclohexylmethyl)-2-methoxy-benzamide], with 6.81.
Under `C=CCNC(=O)N[C@H]1CC[C@@](CNC(=O)c2ccccc2OC)(c2ccccc2)CC1` [N-[4-(3-Allyl-ureido)-1-phenyl-cyclohexylmethyl]-2-methoxy-benzamide] stands 6.17.
Under `C=CCNC(=O)N[C@H]1CC[C@](CNC(=O)c2ccccc2OC)(c2ccccc2)CC1` [N-[4-(3-Allyl-ureido)-1-phenyl-cyclohexylmethyl]-2-methoxy-benzamide] stands 6.37; under `C/C=C/C(=O)N[C@H]1CC[C@](CNC(=O)c2ccccc2OC)(c2ccccc2)CC1` [N-[4-((E)-But-2-enoylamino)-1-phenyl-cyclohexylmethyl]-2-methoxy-benzamide], 6.40.
In turn, `COc1ccccc1C(=O)NC[C@]1(c2ccccc2)CC[C@H](OC(=O)Nc2ccccc2)CC1` [Phenyl-carbamic acid 4-[(2-methoxy-benzoylamino)-methyl]-4-phenyl-cyclohexyl ester] showed a negative-log IC50 (pIC50) of 6.63.
`CCCNC(=O)O[C@H]1CC[C@@](CNC(=O)c2ccccc2OC)(c2ccccc2)CC1` [Propyl-carbamic acid 4-[(2-methoxy-benzoylamino)-methyl]-4-phenyl-cyclohexyl ester]: the pIC50 was 6.56.
Compound `C=CCOC(=O)N[C@H]1CC[C@@](CNC(=O)c2ccccc2OC)(c2ccccc2)CC1` [{4-[(2-Methoxy-benzoylamino)-methyl]-4-phenyl-cyclohexyl}-carbamic acid allyl ester] showed a pIC50 of 6.27.
Under `C=CCOC(=O)N[C@H]1CC[C@](CNC(=O)c2ccccc2OC)(c2ccccc2)CC1` [{4-[(2-Methoxy-benzoylamino)-methyl]-4-phenyl-cyclohexyl}-carbamic acid allyl ester] stands 6.45.
In turn, `COC(=O)N[C@H]1CC[C@@](CNC(=O)c2ccccc2OC)(c2ccccc2)CC1` [{4-[(2-Methoxy-benzoylamino)-methyl]-4-phenyl-cyclohexyl}-carbamic acid methyl ester] gave a pIC50 of 5.98. This pIC50 is 0.47 log units lower than that of the compound before.
Under `COc1ccccc1C(=O)NC[C@]1(c2ccccc2)CC[C@@H](NC(=O)SC)CC1` [{4-[(2-Methoxy-benzoylamino)-methyl]-4-phenyl-cyclohexyl}-thiocarbamic acid methyl ester] stands 6.21.
